Experimental data reported in ChEMBL document CHEMBL1156111, “Identification of the amino acid-AZT-phosphoramidase by affinity T7 phage display selection” (Bioorg Med Chem Lett, 2009).

Target: Adenosine 5'-monophosphoramidase HINT1 (Homo sapiens) (UniProt P49773)
Assay: Ratio of kcat to km for human HINT1

Adenosine 5'-monophosphoramidase HINT1 (Homo sapiens), sequence (P49773 whole entry): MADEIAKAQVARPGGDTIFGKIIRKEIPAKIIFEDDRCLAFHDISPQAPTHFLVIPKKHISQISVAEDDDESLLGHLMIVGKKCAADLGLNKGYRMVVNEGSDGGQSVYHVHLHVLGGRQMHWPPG

Ratio: 25
SMILES: Cc1cn([C@H]2C[C@H](N=[N+]=[N-])[C@@H](COP(=O)(O)NCc3c[nH]c4ccccc34)O2)c(=O)[nH]c1=O
